For 24 molecules, Ki results are on record in patent US8232269B2, “Amide compounds useful in therapy” (Pfizer Inc., priority 2008, dated 2012).

A word on the Ki: it is the dissociation constant of the complex between target and ligand, obtained from inhibition or displacement.

Counter-ions that a name gives are not always drawn.

This assay has as its target T1, Progesterone Receptor (PR) (Homo sapiens, UniProt P06401).
T1 construct: endogenous in cells; host or cells: T47D human breast mammary carcinoma cells
T1 sequence (P06401 1-933): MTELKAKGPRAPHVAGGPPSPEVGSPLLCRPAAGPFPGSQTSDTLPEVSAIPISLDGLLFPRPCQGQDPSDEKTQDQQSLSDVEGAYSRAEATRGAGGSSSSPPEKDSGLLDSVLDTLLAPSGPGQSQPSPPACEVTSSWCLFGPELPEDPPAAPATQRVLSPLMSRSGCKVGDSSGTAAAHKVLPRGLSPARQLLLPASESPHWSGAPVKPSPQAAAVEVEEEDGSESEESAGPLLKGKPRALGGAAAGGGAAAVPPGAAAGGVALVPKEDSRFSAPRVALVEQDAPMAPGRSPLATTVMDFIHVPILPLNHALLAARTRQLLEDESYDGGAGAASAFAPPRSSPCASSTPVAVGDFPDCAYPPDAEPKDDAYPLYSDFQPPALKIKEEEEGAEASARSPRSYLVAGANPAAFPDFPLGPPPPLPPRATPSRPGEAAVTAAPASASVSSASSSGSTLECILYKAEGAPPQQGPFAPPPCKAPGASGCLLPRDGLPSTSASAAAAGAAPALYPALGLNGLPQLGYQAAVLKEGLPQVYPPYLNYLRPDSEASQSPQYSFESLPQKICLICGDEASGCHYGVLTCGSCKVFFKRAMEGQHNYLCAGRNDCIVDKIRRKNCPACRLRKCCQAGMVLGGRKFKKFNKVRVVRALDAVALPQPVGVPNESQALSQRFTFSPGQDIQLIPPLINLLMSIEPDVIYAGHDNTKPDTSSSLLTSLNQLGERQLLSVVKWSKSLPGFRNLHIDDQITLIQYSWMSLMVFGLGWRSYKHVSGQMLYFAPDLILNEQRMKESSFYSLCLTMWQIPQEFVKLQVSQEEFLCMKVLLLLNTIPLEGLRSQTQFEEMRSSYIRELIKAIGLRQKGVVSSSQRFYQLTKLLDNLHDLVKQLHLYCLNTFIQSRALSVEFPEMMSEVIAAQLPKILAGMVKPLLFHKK
Put plainly: In vitro functional assay for progesterone receptor (PR) antagonists: inhibition of progesterone-induced alkaline phosphatase expression in T47D cells. The note with it: antagonist format, 5 nM progesterone, Ki calculated from IC50 with the Cheng-Prusoff equation. The format is cell-based. The source says: 1.0 In vitro Functional Assay for Progesterone Receptor (PR) Antagonists, Agonists and Modulators
The assay for PR antagonism takes advantage of the extensively reported modulation of alkaline phosphatase (AP) expression in human breast T47D mammary carcinoma cells {Beck et al., D. P. (1993). The progesterone antagonist RU486 acquires agonist activity upon stimulation of cAMP signalling pathways. Proc Natl Acad Sci USA 90, 4441-4445; Fensome et al. (2002). New progesterone receptor antagonists: 3,3-disubstituted-5-aryloxindoles. Bioorg Med Chem Lett 12, 3487-3490; Zhang et al., (2002a). 6-Aryl-1,4-dihydro-benzo d1,3oxazin-2-ones: a novel class of potent, selective, and orally active nonsteroidal progesterone receptor antagonists. Journal of Medicinal Chemistry 45, 4379-4382; Zhang et al., (2003). Novel 6-aryl-1,4-dihydrobenzo d oxazine-2-thiones as potent, selective, and orally active nonsteroidal progesterone receptor agonists. Bioorganic & Medicinal Chemistry Letters 13, 1313-1316; Zhang et al., (2002b). Potent nonsteroidal progesterone receptor agonists: synthesis and SAR study of 6-aryl benzoxazines. Bioorganic & Medicinal Chemistry Letters 12, 787-790; Zhang, Z. et al., (2000). In vitro characterization of trimegestone: a new potent and selective progestin. Steroids 65, 637-643}. […] In the absence of progesterone any agonist activity is also observed as an induction of AP activity. By running the assay in two formats (+/−progesterone (P4)), compounds behaving as PR antagonists, agonists, partial agonists or modulators with mixed agonist/antagonist activity can be identified.
Briefly, T47D cells are grown by propagating in DMEM with phenol red+10% FCS+2 mM Glutamine at 37° C./5% CO2. At 70-80% confluence, the media is exchanged for phenol red free DMEM+5% CS-FCS (Assay media). Cells are incubated overnight in assay media then harvested and frozen in assay media containing 10% DMSO at 1.5e7 cells/mL in 2 mL aliquots using a Planer and immediately stored in liquid nitrogen. Vials are removed from liquid nitrogen storage and immediately thawed in a water bath at 37° C. The cell suspension is added dropwise to 20 mL of assay media, then the tube centrifuged at 1000 rpm for 4 minutes, the supernatant is discarded and the pellet re-suspended in 20 mL assay media. T47D cells are then plated at 8750 cells/well in 35 μL assay media in sufficient white solid 384 well TC plates for the assay. For the agonist format assay a further 10 μL of assay media is added to each well. These plates are then cultured for 3-6 hours at 37° C./5% CO2 before compound addition.
Test substances are prepared by in 100% DMSO, half log concentrations from 4 mM in 384 well plates 5 μL/well (referred to here as ‘grandmother plates’). Progesterone is 100 μM made up in ethanol and PBS (i.e. add 1 mL ethanol to progesterone initially to help dissolving) and stored in 0.5-1 mL aliquots at −20° C.
Using a multidrop (Thermolabsystems), 60 μL/well of buffer is added to a 384 well plate—this will be the ‘mother plate’. _Add 45 μL well buffer to grandmother plate using the multidrop (=400 μM 10% DMSO dilution). Mixed and spun to remove air bubbles. • 20 μL is taken from the grandmother plate (400 μM 10% DMSO) and added to the mother plate (=100 μM 2.5% DMSO). Mixed and spun to remove air bubbles Preparation of Max/Min:
Antagonist Min: (Checker Pattern on Plate Map) 1 μM RU-486 (FAC 0.1 μM) • 50 μL of 0.2 mM RU-486 • 10 mL Diluent Addition of Test Substance to Cell Plates • The PlateMate Plus was used to add 5 μL MAX/MIN to cell plates • Then 5 μL test substances are added from the mother plate (after removing max/min PlateMate tips: columns 1 and 24)
Addition of Agonist (5 nM Progesterone FAC) for Antagonist Format Only
25 nM progesterone in assay media is prepared from 100 μM stock (12.5 μL progesterone/50 mL media), from which 10 μL per well is transferred to the assay plate using the PlateMate Plus (already containing cells & compound). […]
On to `CC(C)n1nc(-c2ccc(C#N)cc2)c(C#N)c1C(=O)NC1CC1` [Example 94, 4-Cyano-3-(4-cyanophenyl)-N-cyclopropyl-1-isopropyl-1H-pyrazole-5-carboxamide], for which the Ki was 10.6 nM. Turning to `Cc1c(-c2ccc(C#N)cc2)nn(C2CCC2)c1C(=O)NC[C@H](C)O` [Example 72, 3-(4-Cyanophenyl)-1-cyclobutyl-N-[(2S)-2-hydroxypropyl]-4-methyl-1H-pyrazole-5-carboxamide], the Ki is 13.3 nM.

With `CC(C)n1nc(-c2ccc(C#N)cc2)c(C2CC(F)(F)C2)c1C(=O)NC1CC1` [Example 98, 3-(4-Cyanophenyl)-N-cyclopropyl-4-(3,3-difluorocyclobutyl)-1-isopropyl-1H-pyrazole-5-carboxamide], the inhibition constant Ki is 208 nM. As to `CCC(=O)N1CC[C@H](NC(=O)c2c(C3CC3)c(-c3ccc(C#N)cc3)nn2C(C)C)C1` [Example 15, 3-(4-Cyanophenyl)-4-cyclopropyl-1-isopropyl-N-[(3S)-1-propionylpyrrolidin-3-yl]-1H-pyrazole-5-carboxamide], the inhibitory constant (Ki) was 280 nM. Turning to `CC(C)n1nc(-c2ccc(C#N)cc2)c(C2CC2)c1C(=O)N[C@@H]1CCNC1` [Example 8, 3-(4-Cyanophenyl)-4-cyclopropyl-1-isopropyl-N-[(3R)-pyrrolidin-3-yl]-1H-pyrazole-5-carboxamide hydrochloride], the inhibition constant Ki was 162 nM. `CCC(=O)N1CC(NC(=O)c2c(C3CC3)c(-c3ccc(C#N)cc3)nn2C(C)C)C1` [Example 17, 3-(4-Cyanophenyl)-4-cyclopropyl-1-isopropyl-N-(1-propionylazetidin-3-yl)-1H-pyrazole-5-carboxamide]: the Ki is 42.2 nM. The value for `Cc1c(-c2ccc(C#N)cc2)nn(C2CC2)c1C(=O)NC1CC1` [Example 84, 3-(4-Cyanophenyl)-N,1-dicyclopropyl-4-methyl-1H-pyrazole-5-carboxamide] was 125 nM. With `Cc1cc(-c2nn(C(C)C)c(C(=O)NC(C)C)c2C)ccc1C#N` [Example 66, 3-(4-Cyano-3-methylphenyl)-N,1-diisopropyl-4-methyl-1H-pyrazole-5-carboxamide], the inhibitory constant (Ki) is 3.56 nM. Turning to `CC(C)n1nc(-c2ccc(C#N)cc2)c(C2CC2)c1C(=O)NC1CCS(=O)(=O)C1` (stereo not drawn) [Example 125], the Ki is 8.28 nM.

Consider `CC(C)n1nc(-c2ccc(C#N)cc2)c(C2CC2)c1C(=O)NCC1CCCO1` (racemic) [Example 36, (+/−)-3-(4-Cyanophenyl)-4-cyclopropyl-1-isopropyl-N-(tetrahydrofuran-2-ylmethyl)-1H-pyrazole-5-carboxamide], for which the inhibition constant Ki is 12 nM. As to `CC(C)n1nc(-c2ccc(C#N)cc2)c(C2CC2)c1C(=O)NCC(C)(C)O` [Example 1, 3-(4-Cyano-phenyl)-4-cyclopropyl-N-(2-hydroxy-2-methylpropyl)-1-isopropyl-1H-pyrazole-5-carboxamide], the inhibition constant (Ki) was 19.8 nM. For the molecule `COCCCNC(=O)c1c(C2CC2)c(-c2ccc(C#N)cc2)nn1C(C)C` [Example 21, 3-(4-Cyanophenyl)-4-cyclopropyl-1-isopropyl-N-(3-methoxypropyl)-1H-pyrazole-5-carboxamide], the inhibition constant (Ki) was 8.27 nM. Consider `CCc1c(-c2ccc(C#N)cc2)nn(C(C)C)c1C(=O)NC1CC1` [Example 111, 3-(4-Cyanophenyl)-N-cyclopropyl-4-ethyl-1-isopropyl-1H-pyrazole-5-carboxamide], for which the Ki is 23.1 nM. With `Cc1cc(-c2nn(C(C)C)c(C(=O)NC[C@@H](C)O)c2C#N)ccc1C#N` [Example 128], the Ki was 11.9 nM. `Cc1c(-c2ccc(C#N)cc2)nn(C2CC2)c1C(=O)NC[C@@H](C)O` [Example 87, 3-(4-Cyanophenyl)-1-cyclopropyl-N-[(2R)-2-hydroxypropyl]-4-methyl-1H-pyrazole-5-carboxamide]: the Ki is above 191 nM. On to `CNC(=O)CNC(=O)c1c(C)c(-c2ccc(C#N)c(C)c2)nn1C(C)C` [Example 113, 3-(4-Cyano-3-methylphenyl)-1-isopropyl-4-methyl-N-[2-(methylamino)-2-oxoethyl]-1H-pyrazole-5-carboxamide], for which the inhibitory constant (Ki) was 27.1 nM.

Turning to `CNC(=O)c1c(C2CC(F)(F)C2)c(-c2ccc(C#N)cc2)nn1C(C)C` [Example 99, 3-(4-Cyanophenyl)-4-(3,3-difluorocyclobutyl)-1-isopropyl-N-methyl-1H-pyrazole-5-carboxamide], the Ki was 52.5 nM.

Consider `CCc1c(-c2ccc(C#N)cc2)nn(C(C)CC)c1C(=O)NCC(=O)NC` (racemic) [Example 109, 1-sec-Butyl-3-(4-cyanophenyl)-4-ethyl-N-[2-(methylamino)-2-oxoethyl]-1H-pyrazole-5-carboxamide], for which the Ki is 199 nM. As to `CCc1c(-c2ccc(C#N)cc2)nn(C(C)CC)c1C(=O)NCC(C)(C)O` (stereo not drawn) [Example 130], the Ki was 14.8 nM. With `CC(C)n1nc(-c2ccc(C#N)cc2)c(C2CC2)c1C(=O)NCCCN1CCCC1=O` [Example 26, 3-(4-Cyanophenyl)-4-cyclopropyl-1-isopropyl-N-[3-(2-oxopyrrolidin-1-yl)propyl]-1H-pyrazole-5-carboxamide], the Ki was 86.1 nM.

On to `Cc1c(-c2ccc(C#N)cc2)nn(C2CCOC2)c1C(=O)NC[C@@H](C)O` (single isomer, unassigned) [Example 79 Diast 1], for which the inhibition constant (Ki) is above 766 nM.

Take `CC(C)n1nc(-c2ccc(C#N)cc2)c(C#N)c1C(=O)NCC(C)(C)O` [Example 134]: the Ki is 21.9 nM.

Take `Cc1c(-c2ccc(C#N)cc2)nn(C2CCOC2)c1C(=O)NC(C)C` (single isomer, unassigned) [Example 77 Ent 1, 3-(4-Cyanophenyl)-N-isopropyl-4-methyl-1-(tetrahydrofuran-3-yl)-1H-pyrazole-5-carboxamide]: the Ki is 69.5 nM. In the case of `CC(C)n1nc(-c2ccc(C#N)cc2)c(C2CC2)c1C(=O)N(C)CC1CC1` [Example 51, 3-(4-Cyanophenyl)-4-cyclopropyl-N-(cyclopropylmethyl)-1-isopropyl-N-methyl-1H-pyrazole-5-carboxamide], the inhibition constant Ki is 4.65 nM.
